From patent US6608069B1, “Phenyl xanthine derivatives” (SmithKline Beecham Corporation, priority 1998, dated 2003)

Legend:
[1] = system: cytokine-stimulated human umbilical vein endothelial cells; test: Cell Adhesion Assay: adherence of fluorescently-labelled leukocytes to endothelial cell monolayers; format: cell-based; details: inhibition of cytokine-stimulated adhesion minus basal adhesion; calcein-AM labelled leukocytes on HUVEC monolayers
Procedure, shortened: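 HUVEC monolayers were stimulated with cytokine, and adhesion of calcein-AM-labelled leukocytes was quantified by fluorescence. Inhibition was calculated on cytokine-stimulated adhesion after subtracting basal adhesion of unstimulated cells.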

male Lewis rats = test: Carrageenan Pleurisy Assay; format: in vivo; details: carrageenan 0.075 mg/rat, harvested four hours after carrageenan; for % Inhibition Cells: inflammatory cells (neutrophils) in pleural exudate vs vehicle control; for % Inhibition Exudate: pleural edema (exudate) vs vehicle control
Procedure: 2) Carrageenan Pleurisy Assay
The antiinflammatory activity of compounds of the invention was determined by the procedure of Vinegar, R, et al., Proc. Soc. Exp. Biol. Med., 1981, 168, 24-32, using male Lewis rats of 150±20 grams. The carrageenan dose was 0.075 mg/rat. Pleural exudate was harvested four hours after injection of carrageenan. Acute antiinflammatory activity was determined by inhibition of pleural edema and inflammatory cells (neutrophils) from a negative (vehicle) control group.

Row | Structure (SMILES) | melting point [°C] | also measured
1 | O=C(O)/C=C/c1ccc(-c2nc3c(=O)n(CC4CCC4)c(=O)n(CC4CCC4)c3[nH]2)cc1 (hydrate or solvate) [Example 27, (E)-4-(1,3-bis(cyclobutylmethyl)-1,2,3,6-tetrahydro-2,6-dioxo-9H-purin-8-yl)cinnamic Acid] | > 300 | –
2 | O=C(O)/C=C/c1ccc(-c2nc3c(=O)n(Cc4ccc(F)cc4)c(=O)n(Cc4ccc(F)cc4)c3[nH]2)cc1 (hydrate or solvate) [Example 25, (E)-4-(1,3-bis(4-fluorobenzyl)-1,2,3,6-tetrahydro-2,6-dioxo-9H-purin-8-yl)cinnamic Acid] | > 300 | –
3 | COCCOCCOCCOCCOCCOCCOCCOCCOCCOC(=O)/C=C/c1ccc(-c2nc3c(=O)n(CC4CCCC4)c(=O)n(CC4CCCC4)c3[nH]2)cc1 [Example 36, (E)-4-(1,3-bis(cyclopentylmethyl)-1,2,3,6-tetrahydro-2,6-dioxo-9H-purin-8-yl)cinnamic Acid Nonaethylene Glycol Methyl Ether Ester] | – | IC50 [1]: 11 ± 8 nM; % Inhibition Cells (male Lewis rats): 47%; % Inhibition Exudate (male Lewis rats): 38%
4 | O=C(O)/C=C/c1cccc(-c2nc3c(=O)n(Cc4ccccc4)c(=O)n(Cc4ccccc4)c3[nH]2)c1 (hydrate or solvate) [Example 13, (E)-3-(1,3-bis(benzyl)-1,2,3,6-tetrahydro-2,6-dioxo-9H-purin-8-yl)cinnamic Acid] | > 350 | –
5 | CCCn1c(=O)c2nc(-c3ccc(/C=C/C(=O)OCCOCCOCCOCCOCCOCCOCCOCCOCCOC)cc3)[nH]c2n(CC2CCCCC2)c1=O [Example 44, (E)-4-((1-propyl-3-cyclohexylmethyl)-1,2,3,6-tetrahydro-2,6-dioxo-9H-purin-8-yl)cinnamic Acid Nonaethylene Glycol Methyl Ether Ester] | – | IC50 [1]: 20 ± 10 nM; % Inhibition Cells (male Lewis rats): 44%; % Inhibition Exudate (male Lewis rats): 24%
6 | O=C(O)/C=C/c1ccc(-c2nc3c(=O)n(CC4CCCCCC4)c(=O)n(CC4CCCCCC4)c3[nH]2)cc1 (hydrate or solvate) [Example 7, (E)-4-(1,3-bis(cycloheptylmethyl)-1,2,3,6-tetrahydro-2,6-dioxo-9H-purin-8-yl)cinnamic Acid] | > 250 | –
7 | CCCn1c(=O)n(CC2CCCCC2)c(=O)c2nc(-c3ccc(/C=C/C(=O)NCCOCCOCCOCCOCCOCCOCCOCCOCCOC)cc3)[nH]c21 [Example 74, (E)-4-((1-cyclohexylmethyl-3-propyl)-1,2,3,6-tetrahydro-2,6-dioxo-9H-purin-8-yl)cinnamic Acid Nonaethylene Glycol Methyl Ether Amide] | – | IC50 [1]: 360 ± 160 nM; % Inhibition Cells (male Lewis rats): 85%; % Inhibition Exudate (male Lewis rats): 70%
8 | O=C(O)/C=C/c1ccc(-c2nc3c(=O)n(CCC4CCCCC4)c(=O)n(CCC4CCCCC4)c3[nH]2)cc1 [Example 8, (E)-4-(1,3-bis(2-cyclohexylethyl)-1,2,3,6-tetrahydro-2,6-dioxo-9H-purin-8-yl)cinnamic Acid] | > 250 | –
9 | O=C(O)/C=C/c1cccc(-c2nc3c(=O)n(CC4CCCCC4)c(=O)n(CC4CCCCC4)c3[nH]2)c1 (hydrate or solvate) [Example 31, (E)-3-[1,3-Bis(cyclohexylmethyl)-1,2,3,6-tetrahydro-2,6-dioxo-9H-purin-8-yl]cinnamic Acid] | > 350 | –
10 | COCCOCCOCCOCCOCCOCCOCCOCCOCCOC(=O)/C=C/c1ccc(-c2nc3c(c(=O)n(CC4CCCCC4)c(=O)n3CC3CCCCC3)n2C)cc1 [Example 79, (E)-4-(1,3-Bis(cyclohexylmethyl)-2,3,6,7-tetrahydro-2,6-dioxo-7-methyl-1H-purin-8-yl)cinnamic Acid Nonaethylene Glycol Methyl Ether Ester] | – | IC50 [1]: 3 ± 1 nM; % Inhibition Cells (male Lewis rats): 55%; % Inhibition Exudate (male Lewis rats): 7%
11 | O=C(O)/C=C/c1ccc(-c2nc3c(=O)n(-c4ccccc4)c(=O)n(-c4ccccc4)c3[nH]2)cc1 [Example 9, (E)-4-(1,3-bis(phenyl)-1,2,3,6-tetrahydro-2,6-dioxo-9H-purin-8-yl)cinnamic Acid] | > 375 | –
12 | O=C(O)/C=C/c1ccc(-c2nc3c(=O)n(Cc4ccccc4F)c(=O)n(Cc4ccccc4F)c3[nH]2)cc1 [Example 21, (E)-4-(1,3-bis(2-fluorobenzyl)-1,2,3,6-tetrahydro-2,6-dioxo-9H-purin-8-yl)cinnamic Acid] | > 350 | –
13 | Cn1c(=O)c2nc(-c3ccc(/C=C/C(=O)O)cc3)[nH]c2n(C)c1=O (hydrate or solvate) [Example 14, (E)-4-(1,3-bis(methyl)-1,2,3,6-tetrahydro-2,6-dioxo-9H-purin-8-yl)cinnamic Acid] | > 350 | –
14 | O=C(O)/C=C/c1ccc(-c2nc3c(=O)n(CCc4ccccc4)c(=O)n(CCc4ccccc4)c3[nH]2)cc1 [Example 22, (E)-4-(1,3-bis(2-phenylethyl)-1,2,3,6-tetrahydro-2,6-dioxo-9H-purin-8-yl)cinnamic Acid] | > 350 | –
15 | O=C(O)/C=C/c1ccc(-c2nc3c(=O)n(Cc4ccccc4)c(=O)n(Cc4ccccc4)c3[nH]2)cc1 [Example 2, (E)-4-(1,3-bis(benzyl)-1,2,3,6-tetrahydro-2,6-dioxo-9H-purin-8-yl)cinnamic Acid] | > 300 | –
16 | O=C(O)/C=C/c1ccc(-c2nc3c(=O)n(Cc4ccccc4)c(=S)n(Cc4ccccc4)c3[nH]2)cc1 [Example 17, (E)-4-(1,3-bis(benzyl)-1,2,3,6-tetrahydro-2-thioxo-6-oxo-9H-purin-8-yl)cinnamic Acid] | > 350 | –
17 | CCCn1c(=O)c2nc(-c3ccc(/C=C/C(=O)O)cc3)[nH]c2n(CCC)c1=O [Example 4, (E)-4-(1,3-bis(propyl)-1,2,3,6-tetrahydro-2,6-dioxo-9H-purin-8-yl)cinnamic Acid] | > 300 | –
18 | O=C(O)/C=C/c1ccc(-c2nc3c(=O)n(CC4CC4)c(=O)n(CC4CC4)c3[nH]2)cc1 [Example 5, (E)-4-(1,3-bis(cyclopropylmethyl)-1,2,3,6-tetrahydro-2,6-dioxo-9H-purin-8-yl)cinnamic Acid] | > 250 | –
19 | CC(C)Cn1c(=O)c2nc(-c3ccc(/C=C/C(=O)O)cc3)[nH]c2n(CC(C)C)c1=O [Example 10, (E)-4-(1,3-bis(2-methylpropyl)-1,2,3,6-tetrahydro-2,6-dioxo-9H-purin-8-yl)cinnamic Acid] | > 300 | –
20 | O=C(O)/C=C/c1ccc(-c2nc3c(=O)n(CC4CCCC4)c(=O)n(CC4CCCC4)c3[nH]2)cc1 [Example 3, (E)-4-(1,3-bis(cyclopentylmethyl)-1,2,3,6-tetrahydro-2,6-dioxo-9H-purin-8-yl)cinnamic Acid] | > 300 | –
21 | O=C(O)/C=C/c1ccc(-c2nc3c(=O)n(Cc4cccnc4)c(=O)n(Cc4cccnc4)c3[nH]2)cc1 (hydrate or solvate) [Example 30, (E)-4-(1,3-Bis(3-pyridinylmethyl)-1,2,3,6-tetrahydro-2,6-dioxo-9H-purin-8-yl)cinnamic Acid] | > 300 | –
22 | O=C(O)/C=C/c1ccc(-c2nc3c(=O)n(Cc4cccc(F)c4)c(=O)n(Cc4cccc(F)c4)c3[nH]2)cc1 [Example 20, (E)-4-(1,3-bis(3-fluorobenzyl)-1,2,3,6-tetrahydro-2,6-dioxo-9H-purin-8-yl)cinnamic Acid] | > 300 | –
23 | O=C(O)/C=C/c1ccc(-c2nc3c(=O)n(CC4CC5CCC4C5)c(=O)n(CC4CC5CCC4C5)c3[nH]2)cc1 (stereo not drawn) [Example 12, (E)-4-(1,3-bis(bicyclo(2.2.1)hept-2-ylmethyl)-1,2,3,6-tetrahydro-2,6-dioxo-9H-purin-8-yl)cinnamic Acid] | > 250 | –
24 | CCCn1c(=O)c2nc(-c3cccc(/C=C/C(=O)O)c3)[nH]c2n(CCC)c1=O (hydrate or solvate) [Example 26, (E)-3-[1,3-bis(propyl)-1,2,3,6-tetrahydro-2,6-dioxo-9H-purin-8-yl]cinnamic Acid] | > 350 | –
25 | O=C(/C=C/c1ccc(-c2nc3c(=O)n(CC4CCCCC4)c(=O)n(CC4CCCCC4)c3[nH]2)cc1)NCCOCCOCCOCCOCCOCCOCc1ccccc1 [Example 101, (E)-4-(1,3-Bis(cyclohexylmethyl)-1,2,3,6-tetrahydro-2,6-dioxo-9H-purin-8-yl)cinnamic Acid Hexaethylene Glycol Benzyl Ether Amide] | – | IC50 [1]: 340 ± 94 nM
26 | COCCOCCOCCOCCOCCOCCOCCOC(=O)/C=C/c1ccc(-c2nc3c(c(=O)[nH]c(=O)n3CC3CCCCC3)n2C)cc1 [Example 103, (E)-4-[(3-Cyclohexylmethyl)-2,3,6,7-tetrahydro-2,6-dioxo-7-methyl-1H-purin-8-yl]cinnamic Acid Heptaethylene Glycol Methyl Ether Ester] | – | IC50 [1]: 230 ± 110 nM
27 | COCCOCCOCCOCCOCCOCCOCCOCCOCCNC(=O)/C=C/c1ccc(-c2nc3c(=O)n(CC4CCCCC4)c(=O)n(CC4CCCCC4)c3[nH]2)cc1 [Example 69, (E)-4-(1,3-Bis(cyclohexylmethyl)-1,2,3,6-tetrahydro-2,6-dioxo-9H-purin-8-yl)cinnamic Acid Nonaethylene Glycol Methyl Ether Amide] | – | IC50 [1]: 62 ± 27 nM
28 | COCCOCCOCCOCCOCCOCCOCCOCCOCCOC(=O)/C=C/c1ccc(-c2nc3c(=O)n(CC4CCCCCC4)c(=O)n(CC4CCCCCC4)c3[nH]2)cc1 [Example 40, (E)-4-(1,3-bis(cycloheptylmethyl)-1,2,3,6-tetrahydro-2,6-dioxo-9H-purin-8-yl)cinnamic Acid Nonaethylene Glycol Methyl Ether Ester] | – | IC50 [1]: 14 ± 7 nM
